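Five compound concentrations were applied to cells in 96-well plates for 48 hours; endpoints were derived by simple linear interpolation of the resulting dose-response curve. GI50: concentration for 50% inhibition of growth.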 Active and inactive are the calls of the source. No stated cut-off is given here; in the data, active = GI50 up to about 1.1 µM and inactive = higher.
Legend:
Experiment in all cases: DTP human tumour cell line panel, 48 h
UO-31 = tested on: UO-31
LOX IMVI = tested on: LOX IMVI
SN12C = tested on: SN12C
A549 = tested on: A549
NCI-H460 = tested on: NCI-H460
SK-OV-3 = tested on: SK-OV-3
SK-MEL-28 = tested on: SK-MEL-28
SF-539 = tested on: SF-539
HCT-15 = tested on: HCT-15
NCI-H23 = tested on: NCI-H23
PC-3 = tested on: PC-3
MDA-MB-435 = tested on: MDA-MB-435
HT-29 = tested on: HT-29
Hs-578T = tested on: Hs-578T
COLO 205 = tested on: COLO 205
T47D = tested on: T47D
SR = tested on: SR
HL-60 = tested on: HL-60
SW-620 = tested on: SW-620

| Structure (SMILES) | GI50 (UO-31) | GI50 (LOX IMVI) | GI50 (SN12C) | GI50 (A549) | GI50 (NCI-H460) | GI50 (SK-OV-3) | GI50 (SK-MEL-28) | GI50 (SF-539) | GI50 (HCT-15) [µM] | GI50 (NCI-H23) | GI50 (PC-3) | GI50 (MDA-MB-435) | GI50 (HT-29) | GI50 (Hs-578T) | GI50 (COLO 205) | GI50 (T47D) | GI50 (SR) | GI50 (HL-60) | GI50 (SW-620) |
| --- | --- | --- | --- | --- | --- | --- | --- | --- | --- | --- | --- | --- | --- | --- | --- | --- | --- | --- | --- |
| CCOC(=O)C1=C(C)N(Cc2ccccc2)C2(O)C=CC(=O)C3C(=O)N(c4ccccc4)C(=O)C132 (stereo not drawn) | 1.89 µM (inactive) | 1.36 µM (inactive) | 2.56 µM (inactive) | 2.86 µM (inactive) | 1.81 µM (inactive) | 6.75 µM (inactive) | 1.82 µM (inactive) | 1.6 µM (inactive) | 1.79 | 2.56 µM (inactive) | 1.92 µM (inactive) | 1.89 µM (inactive) | 1.7 µM (inactive) | 5.4 µM (inactive) | 1.51 µM (inactive) | 2.42 µM (inactive) | 1.01 µM (active) | 1.99 µM (inactive) | – |
| CCOC(=O)C12C(=O)CCN1CCc1ccccc1C2C (stereo not drawn) | > 100 µM (inactive) | > 100 µM (inactive) | > 100 µM (inactive) | > 100 µM (inactive) | – | > 100 µM (inactive) | > 100 µM (inactive) | > 100 µM (inactive) | > 100 | > 100 µM (inactive) | > 100 µM (inactive) | > 100 µM (inactive) | > 100 µM (inactive) | > 100 µM (inactive) | > 100 µM (inactive) | > 100 µM (inactive) | > 100 µM (inactive) | > 100 µM (inactive) | > 100 µM (inactive) |
| Cc1cccc(Cl)c1NC(=O)/C=C/c1ccccc1 | – | > 100 µM (inactive) | 80.5 µM (inactive) | 94 µM (inactive) | 86.3 µM (inactive) | 37.3 µM (inactive) | > 100 µM (inactive) | 44.8 µM (inactive) | > 100 | > 100 µM (inactive) | > 100 µM (inactive) | > 100 µM (inactive) | 59.3 µM (inactive) | 33 µM (inactive) | > 100 µM (inactive) | 36.7 µM (inactive) | > 100 µM (inactive) | 84.1 µM (inactive) | > 100 µM (inactive) |
| Cc1cccc(C)c1NC(=O)/C=C/c1ccccc1 | – | > 100 µM (inactive) | > 100 µM (inactive) | > 100 µM (inactive) | > 100 µM (inactive) | > 100 µM (inactive) | > 100 µM (inactive) | > 100 µM (inactive) | > 100 | > 100 µM (inactive) | > 100 µM (inactive) | > 100 µM (inactive) | > 100 µM (inactive) | 24.6 µM (inactive) | > 100 µM (inactive) | > 100 µM (inactive) | > 100 µM (inactive) | > 100 µM (inactive) | > 100 µM (inactive) |
| Cc1nc2sc3ccccc3n2c(=O)c1/N=N/c1ccc(Br)cc1 | – | 54.8 µM (inactive) | > 100 µM (inactive) | > 100 µM (inactive) | > 100 µM (inactive) | > 100 µM (inactive) | > 100 µM (inactive) | > 100 µM (inactive) | > 100 | > 100 µM (inactive) | 51.5 µM (inactive) | > 100 µM (inactive) | > 100 µM (inactive) | 67.5 µM (inactive) | > 100 µM (inactive) | 90.8 µM (inactive) | 82.6 µM (inactive) | 81.8 µM (inactive) | > 100 µM (inactive) |
| COc1cccc(C23CCCC(C2)N(C)CC3OC(=O)c2ccccc2)c1OC (stereo not drawn) | > 100 µM (inactive) | 20.1 µM (inactive) | – | 41 µM (inactive) | 20.6 µM (inactive) | 34 µM (inactive) | 28 µM (inactive) | 52.5 µM (inactive) | 22.5 | 10.7 µM (inactive) | 23.8 µM (inactive) | 18 µM (inactive) | 13.2 µM (inactive) | 24.4 µM (inactive) | 14.1 µM (inactive) | 20.3 µM (inactive) | 16.2 µM (inactive) | 10.2 µM (inactive) | 24.4 µM (inactive) |

— ChEMBL document CHEMBL1201862, “PubChem BioAssay data set” (2004)
